Experimental data reported in US20260144880A1 (priority 2018, published 2026).
Where two headings read alike, the source gives them in different places.

How the values were obtained:
[1] = system: Neuraminidase transfected HEK 293 cells
[2] = in vitro; conditions: human
[3] = system: influenza virus A/Puerto Rico/8/1934 (H1N1); assay type: in vivo, BALB/c mice; conditions: DNP-KLH immunized mice, 1.5 μmol/kg intranasally one time a day for five days, 100 LD50
[4] = system: Neuraminidase transfected HEK 293 cells; assay type: binding
[5] = system: 293NA cells (HEK 293 cells that express NA); assay type: cell-based
[6] = system: A/Aichi/2/1968 (HA, NA), x-31b (H3N2) virus; parameters: species or system mice; conditions: mouse, in vivo, ip
[7] = system: A/Aichi/2/1968 (HA, NA), x-31b (H3N2) virus; parameters: species or system mice; conditions: mouse, in vivo
[8] = system: A/Puerto Rico/8/34; parameters: species or system mice; conditions: mouse, in vivo, ip

With CCCC(=O)OCN(C(=O)[C@@H](NC(=O)[C@H]1CCCCN1C)C(C)CC)[C@H](C[C@@H](OC(C)=O)c1nc(C(=O)N[C@@H](Cc2ccc(O)cc2)C[C@H](C)C(=O)NNC(=O)OCCSSC[C@H](NC(=O)[C@H](CC(=O)O)NC(=O)[C@@H](N)CNC(=O)CCC(=O)N2Cc3ccccc3-c3c(nnn3CCOCCOCCOCCNC(=O)O[C@@H]([C@@H]3OC(C(=O)O)=C[C@H](NC(=N)N)[C@H]3NC(C)=O)[C@H](O)CO)-c3ccccc32)C(=O)O)cs1)C(C)C (stereo partly drawn) the “reduction of cytotoxicity by blocking neuraminidase binding sites” value [1] was > 30 fold and the EC50 [2] was 5.2 nM.

In the case of CC(=O)N[C@H]1[C@H]([C@H](O)[C@H](O)CO)OC(C(=O)O)=C[C@@H]1N=C(N)N [zanamivir], the “survival (protection from lethal virus challenge)” value [3] is reported as 60%, the Kd [4] is reported as ~0.77 nM and the “% of killing (LDH)” value [5] is reported as “no killing”. The “protection 14 days post infection” value [6] was “does not provide the same protection”, the “protection 14 days post infection” value [7] was “does not provide the same protection” and the “protection 14 days post infection” value [8] was “does not provide the same protection”.

Tubulysin B hydrazide gave an EC50 [1] of 9.9 nM.
